According to article PMC11861906, “Structural basis for lipid-mediated activation of G protein-coupled receptor GPR55” (Nature Communications, 2025):

Assays:
[1] = target: GPR55 mutant T176A (Gα13) (Homo sapiens, UniProt Q9Y2T6, T176A); assay: BRET² G protein dissociation assay, GPR55 T176A with Gα13; type: cell-based
Excerpt: (§1) To validate the functionality of the GPR55 cryo-EM construct, we conducted bioluminescence resonance energy transfer 2 (BRET²)-based G protein dissociation assays[46],[47] using an engineered heterotrimeric G13 protein. The N-terminal GFP fusion of the receptor was additionally modified with a G67A mutation to disrupt fluorescence properties. We employed human embryonic kidney (HEK) cells overexpressing wt or mutant GPR55 together with Gβ3, Gγ9-GFP, and Gα13 tagged with Renilla luciferase 8 (Rluc8).
(§2) G protein dissociation assays were performed according to the original protocols of the TRUPATH BRET² assay[47],[87] but with subtle modifications as previously described[61],[88],[89]. All reagents and cells were obtained from Thermo Fisher Scientific unless indicated otherwise. The coding sequences for the G protein biosensors[47] (Gα12-Rluc8, Gα13-Rluc8, wt Gβ3, and Gγ9-GFP), the wt GPR55, the construct used for cryo-EM (with GFP bearing a G67A mutation to disrupt fluorescence properties[48] for BRET² assays), GPR55 binding pocket mutants (G152^4.56F, G152^4.56W, N171^ECL2Q, N171^ECL2A, T176^5.33A, R253^6.62A), and the wt TBXA2R were codon-optimized for Homo sapiens, gene-synthesized, and sub-cloned into pcDNA^TM3.1(+) between NheI and HindIII restriction sites by GeneArt (Thermo Fisher Scientific). […] Freshly grown cells were washed with Dulbecco’s Balanced Salt Solution (DPBS, cat. #14200075) and detached using trypsin-ethylenediaminetetraacetic acid (trypsin-EDTA) (cat. #25300-062). Then, the cells were reconstituted to 500,000 cells per mL with fresh medium, and 1,000,000 cells were seeded into each well of a 6-well plate. After 3 h incubation at 37 °C and 5% CO2, adherent cells were transfected with 600 ng DNA (1:1:1:1 ratio of plasmid DNA for GPR55, wt Gβ3, Gγ9-GFP, and Gα12-Rluc8 or Gα13-Rluc8). Plasmid DNA was mixed with 1.5 µL Lipofectamine^TM 2000 (cat. #11668027) in Opti-MEM^TM medium (cat. #31985062) and incubated for 20 min. Then, the mixture was added to each well of the 6-well plate following 24 h incubation at 37 °C and 5% CO2. Transfected cells were washed with DPBS, detached using EDTA (Versene, cat. #15040066), and reconstituted into fresh medium at 500,000 cells mL^−1. From this suspension, 50,000 cells were seeded into each well of a white-bottom 96-well plate (Nunc^TM MicroWell^TM 96 wells, cat. #136101) following overnight incubation at 37 °C and 5% CO2. Then, the adherent cells were washed with assay medium [Hank’s balanced salt solution (HBSS, cat. #14065056) plus 20 mM HEPES pH 7.4 (cat. #15630056)] and finally reconstituted into 50 µL of the same medium. […] Methoxy e-Coelenterazine was used as luciferase substrate (Prolume Purple, NanoLight Technology, cat. #369), reconstituted at 1 mM in methanol and diluted to 37.5 µM with assay buffer (7.5 µM final assay concentration). The assay was started by the addition of 20 µL luciferase substrate to each well of the assay plate using a Multidrop^TM Combi reagent dispenser (Thermo Fisher Scientific), followed by 5 min incubation at room temperature. Then, 30 µL of agonist dilutions or DMSO control was added (final DMSO concentration 1.5%), followed by an additional 5 min incubation at room temperature. BRET² measurements were performed with a PHERAstar® FSX microplate reader (BMG LABTECH) using a BRET² filter (donor emission 370–450 nm, acceptor emission 500–530 nm) at the maximum fluorescence gain of 3600. BRET² ratios were calculated by dividing GFP emission signals from Rluc8 emission counts. Buffer-DMSO controls were subtracted from each data point to calculate ΔBRET² ratios.

[2] = target: GPR55 mutant N171A (Gα13) (Homo sapiens, UniProt Q9Y2T6, N171A); assay: BRET² G protein dissociation assay, GPR55 N171A with Gα13; type: cell-based
GPR55 mutant N171A (Gα13), sequence (Q9Y2T6 whole entry N171A): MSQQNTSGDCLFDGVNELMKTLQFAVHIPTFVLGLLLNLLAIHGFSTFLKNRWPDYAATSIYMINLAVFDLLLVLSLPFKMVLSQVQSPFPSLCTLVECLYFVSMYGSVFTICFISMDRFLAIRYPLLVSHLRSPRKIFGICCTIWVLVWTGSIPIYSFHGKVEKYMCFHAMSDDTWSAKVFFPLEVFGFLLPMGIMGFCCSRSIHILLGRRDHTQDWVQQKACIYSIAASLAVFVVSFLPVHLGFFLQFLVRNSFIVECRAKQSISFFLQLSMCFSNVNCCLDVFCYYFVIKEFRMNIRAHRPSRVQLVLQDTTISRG
GPR55 mutant N171A (Gα13), sequence (Q14344 whole entry partner): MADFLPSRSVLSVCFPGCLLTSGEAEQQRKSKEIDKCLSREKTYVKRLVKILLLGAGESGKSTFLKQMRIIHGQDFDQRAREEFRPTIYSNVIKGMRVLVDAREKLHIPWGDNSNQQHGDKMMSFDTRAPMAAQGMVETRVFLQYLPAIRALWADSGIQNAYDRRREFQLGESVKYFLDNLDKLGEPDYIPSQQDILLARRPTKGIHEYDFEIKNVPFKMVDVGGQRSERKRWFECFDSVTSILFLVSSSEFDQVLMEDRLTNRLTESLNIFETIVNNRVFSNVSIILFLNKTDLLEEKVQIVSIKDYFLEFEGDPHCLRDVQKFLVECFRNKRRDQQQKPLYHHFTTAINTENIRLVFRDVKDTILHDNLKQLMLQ
GPR55 mutant N171A (Gα13), sequence (P16520 whole entry partner): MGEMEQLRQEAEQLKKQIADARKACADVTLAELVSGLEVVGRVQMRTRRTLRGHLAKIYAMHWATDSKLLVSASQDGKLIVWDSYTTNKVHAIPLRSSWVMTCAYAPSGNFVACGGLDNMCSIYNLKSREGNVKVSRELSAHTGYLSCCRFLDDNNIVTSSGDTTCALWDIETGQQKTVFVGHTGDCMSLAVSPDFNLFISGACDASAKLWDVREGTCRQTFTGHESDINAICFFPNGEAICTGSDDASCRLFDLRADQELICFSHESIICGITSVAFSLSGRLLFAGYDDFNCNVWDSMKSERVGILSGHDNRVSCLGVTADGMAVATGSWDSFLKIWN
GPR55 mutant N171A (Gα13), sequence (O14610 1-66 partner limits assumed): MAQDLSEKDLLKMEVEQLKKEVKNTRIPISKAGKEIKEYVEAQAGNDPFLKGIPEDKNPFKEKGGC
Excerpt: as §1, §2

GPR55 mutant T176A (Gα13), sequence (Q9Y2T6 whole entry T176A, the tested form may be a part): as the sequence (Q9Y2T6 whole entry N171A) above, with A171N, T176A counted along it
GPR55 mutant T176A (Gα13), sequence (Q14344 whole entry partner, the tested form may be a part): as the sequence (Q14344 whole entry partner) above
GPR55 mutant T176A (Gα13), sequence (P16520 whole entry partner, the tested form may be a part): as the sequence (P16520 whole entry partner) above
GPR55 mutant T176A (Gα13), sequence (O14610 1-66 partner limits assumed): as the sequence (O14610 1-66 partner limits assumed) above

| Mean (plotted) BRET² response, GPR55-T176A-G13 ([1]; Concentration 300 pM) | Mean (plotted) BRET² response, GPR55-T176A-G13 ([1]; Concentration 1e-9 M) | Mean (plotted) BRET² response, GPR55-T176A-G13 ([1]; Concentration 3e-9 M) | Mean (plotted) BRET² response, GPR55-T176A-G13 ([1]; Concentration 1e-8 M) | Mean (plotted) BRET² response, GPR55-T176A-G13 ([1]; Concentration 3e-8 M) | Mean (plotted) BRET² response, GPR55-T176A-G13 ([1]; Concentration 1e-7 M) | Mean (plotted) BRET² response, GPR55-T176A-G13 ([1]; Concentration 3e-7 M) | Mean (plotted) BRET² response, GPR55-T176A-G13 ([1]; Concentration 1e-6 M) | Mean (plotted) BRET² response, GPR55-T176A-G13 ([1]; Concentration 3e-6 M) | Mean (plotted) BRET² response, GPR55-T176A-G13 ([1]; Concentration 1e-5 M) | Mean (plotted) BRET² response, GPR55-T176A-G13 ([1]; Concentration 3e-5 M) | Mean (plotted) BRET² response, GPR55-N171A-G13 ([2]; Concentration 300 pM) | Mean (plotted) BRET² response, GPR55-N171A-G13 ([2]; Concentration 1e-9 M) | Mean (plotted) BRET² response, GPR55-N171A-G13 ([2]; Concentration 3e-9 M) | Mean (plotted) BRET² response, GPR55-N171A-G13 ([2]; Concentration 1e-8 M) | Mean (plotted) BRET² response, GPR55-N171A-G13 ([2]; Concentration 3e-8 M) | Mean (plotted) BRET² response, GPR55-N171A-G13 ([2]; Concentration 1e-7 M) | Mean (plotted) BRET² response, GPR55-N171A-G13 ([2]; Concentration 3e-7 M) | Mean (plotted) BRET² response, GPR55-N171A-G13 ([2]; Concentration 1e-6 M) | Mean (plotted) BRET² response, GPR55-N171A-G13 ([2]; Concentration 3e-6 M) | Structure (SMILES) | other results |
| --- | --- | --- | --- | --- | --- | --- | --- | --- | --- | --- | --- | --- | --- | --- | --- | --- | --- | --- | --- | --- | --- |
| 0.001302 | -0.0007282 | -0.005903 | -0.01189 | -0.02424 | -0.03886 | -0.05218 | -0.06011 | -0.06604 | -0.06889 | -0.07107 | 0.002752 | 0.003846 | -0.0003036 | 0.001966 | -0.0002448 | -0.005366 | -0.01646 | -0.04126 | -0.05866 | Cc1cccc(N2CCN(C(=O)c3cc(S(=O)(=O)N(C)C)ccc3N3CCCC3)CC2)c1C [ML184, 3-[[4-(2,3-dimethylphenyl)-1-piperazinyl]carbonyl]-N,N-dimethyl-4-(1-pyrrolidinyl)benzenesulfonamide] | EC50 ([1]; GPR55 T176A, Gα13): 77.6 nM; Emax at 30 µM ([1]; GPR55 T176A, Gα13, 30 µM ligand, same normalization, read-out: Efficacy ± SEM (%)): 100 ± 1%; reduction of potency compared to wt GPR55 ([1]; T176A mutant): 2 fold; Mean (plotted) BRET² response, GPR55-N171A-G13 ([2]; Concentration 1e-5 M): -0.07333; Mean (plotted) BRET² response, GPR55-N171A-G13 ([2]; Concentration 3e-5 M): -0.07936; EC50 ([2]; GPR55 N171A, Gα13): 1050 nM; Emax at 30 µM ([2]; GPR55 N171A, Gα13, 30 µM ligand, same normalization, read-out: Efficacy ± SEM (%)): 73 ± 3%; reduction of potency compared to wt GPR55 ([2]; N171A mutant): 24 fold |
| 0.0002029 | 0.000161 | 0.0002381 | -0.0002172 | 0.0004783 | -0.0003604 | 0.004625 | 0.001082 | -0.0002941 | 0.003133 | 0.0069 | -0.003007 | 0.003546 | 0.00299 | -0.006252 | 0.007492 | 0.005274 | 0.006727 | 0.007007 | 0.002553 | CCCCC[C@H](O)/C=C/[C@@H]1[C@@H](C/C=C\CCCC(=O)O)[C@H]2CO[C@@H]1C2 [U-46619] | Mean (plotted) BRET² response, GPR55-T176A-G13 ([1]; Concentration 10 pM): -0.0049; Mean (plotted) BRET² response, GPR55-T176A-G13 ([1]; Concentration 30 pM): 0.00215; Mean (plotted) BRET² response, GPR55-T176A-G13 ([1]; Concentration 100 pM): 0.0004; Mean (plotted) BRET² response, GPR55-N171A-G13 ([2]; Concentration 10 pM): 0.0067; Mean (plotted) BRET² response, GPR55-N171A-G13 ([2]; Concentration 30 pM): 0.0022; Mean (plotted) BRET² response, GPR55-N171A-G13 ([2]; Concentration 100 pM): 0.008; Mean (plotted) BRET² response, GPR55-N171A-G13 ([2]; Concentration 1e-5 M): -0.002868; Mean (plotted) BRET² response, GPR55-N171A-G13 ([2]; Concentration 3e-5 M): -0.004916 |
